Laboratory results from patent US9707234B2, “Spirocyclic hetercycle compounds useful as HIV integrase inhibitors” (MERCK SHARP & DOHME CORP., priority 2013, dated 2017).

test system: HIV-1 (H9IIIB or NL4-3 virus) replication in MT4-GFP cells; assay: microbe, parasite or virus in culture; type: cell-based; conditions: Human immunodeficiency virus 1, NL43, MT4-GFP cells infected with HIV-1; 10% normal human serum; inhibition of reproductive ratio R0, 48-72 h post-infection; read-out: ViKinG IP (nM) with 10% NHS

Question: CCN1C(=O)c2c(O)c(=O)c(-c3nnc(Cc4ccc(F)cc4)s3)cn2N(C)C12CCNCC2 [Compound 33] was tested. Which IC50 did it give?
Answer: The IC50 was 49 nM.

Question: CN1C(=O)c2c(O)c(=O)c(-c3nnc(Cc4ccc(F)cc4F)s3)cn2N(C)C12CCCNCC2 (centres unmarked) [Compound 34] was tested. Which IC50 did it give?
Answer: Its IC50 is 34 nM.

Question: With CN1C(=O)c2c(O)c(=O)c(-c3nnc(Cc4ccc(F)cc4F)s3)cn2CC12CCNCC2 [Compound 93] as the compound, how does the IC50 read?
Answer: Its IC50 is 114 nM.

Question: For CN1C(=O)c2c(O)c(=O)c(C(=O)NCc3ccc(F)cc3F)cn2N(C)C12CCOC2 (centres unmarked) [Compound 103], which IC50 is on record?
Answer: The IC50 was 6 nM.

Question: How did the IC50 turn out when CCOCCN1C(=O)c2c(O)c(=O)c(C(=O)NCc3ccc(F)cc3F)cn2N(C)C12CCOCC2 [Compound 142] was run?
Answer: Its IC50 is 13 nM.

Question: For CN1C(=O)c2c(O)c(=O)c(C(=O)NCc3ccc(F)cc3F)cn2N(C)C12COC2 [Compound 143], which IC50 is on record?
Answer: Its IC50 is 7 nM.

Question: How did the IC50 turn out when CCN1C(=O)c2c(O)c(=O)c(C(=O)NCc3ccc(F)cc3F)cn2N(C)C12COC2 [Compound 144] was run?
Answer: The IC50 was 60 nM.

same assay, conditions: Human immunodeficiency virus 1, NL43, MT4-GFP cells infected with HIV-1; 100% normal human serum; inhibition of reproductive ratio R0, 48-72 h post-infection; read-out: ViKinG IP (nM) with 100% NHS

Question: With CCN1C(=O)c2c(O)c(=O)c(-c3nnc(Cc4ccc(F)cc4)s3)cn2N(C)C12CCNCC2 [Compound 33] as the compound, how does the IC50 read?
Answer: Its IC50 is 89 nM.

Question: With CCN1C(=O)c2c(O)c(=O)c(-c3nnc(Cc4ccc(F)cc4F)s3)cn2N(C)C12CCCOC2 (centres unmarked) [Compound 37] as the compound, how does the IC50 read?
Answer: Its IC50 is 456 nM.

Question: CN1C(=O)c2c(O)c(=O)c(-c3nnc(Cc4ccc(F)cc4)s3)cn2N(C)C12CCOC2 (centres unmarked) [Compound 38] was tested. Which IC50 did it give?
Answer: The IC50 was 132 nM.

Question: How did the IC50 turn out when CN1C(=O)c2c(O)c(=O)c(C(=O)NCc3ccc(F)cc3F)cn2CC12CCOCC2 [Compound 39] was run?
Answer: Its IC50 is 49 nM.

Question: CCN1C(=O)c2c(O)c(=O)c(C(=O)NCc3ccc(F)cc3F)cn2CC12CCOCC2 [Compound 40] was tested. Which IC50 did it give?
Answer: The IC50 was 236 nM.

Question: Which IC50 does the source give for CCCN1C(=O)c2c(O)c(=O)c(C(=O)NCc3ccc(F)cc3F)cn2CC12CCOCC2 [Compound 41] here?
Answer: Its IC50 is 7800 nM.

Question: For COCCN1C(=O)c2c(O)c(=O)c(C(=O)NCc3ccc(F)cc3F)cn2CC12CCOCC2 [Compound 42], which IC50 is on record?
Answer: The IC50 was 234 nM.

Question: Which IC50 does the source give for COCCCN1C(=O)c2c(O)c(=O)c(C(=O)NCc3ccc(F)cc3F)cn2CC12CCOCC2 [Compound 43] here?
Answer: Its IC50 is 39 nM.

Question: For CCOCCN1C(=O)c2c(O)c(=O)c(C(=O)NCc3ccc(F)cc3F)cn2CC12CCOCC2 [Compound 44], which IC50 is on record?
Answer: The IC50 was 57 nM.

Question: CCCCCN1C(=O)c2c(O)c(=O)c(C(=O)NCc3ccc(F)cc3F)cn2CC12CCOCC2 [Compound 45] was tested. Which IC50 did it give?
Answer: The IC50 was 236 nM.

Question: How did the IC50 turn out when O=C(NCc1ccc(F)cc1F)c1cn2c(c(O)c1=O)C(=O)N(CCCC(F)(F)F)C1(CCOCC1)C2 [Compound 46] was run?
Answer: The IC50 was 110 nM.

Question: How did the IC50 turn out when O=C(NCc1ccc(F)cc1F)c1cn2c(c(O)c1=O)C(=O)N(CCCCC(F)(F)F)C1(CCOCC1)C2 [Compound 47] was run?
Answer: The IC50 was 71 nM.

Question: COCc1c(C(=O)NCc2ccc(F)cc2F)c(=O)c(O)c2n1CC1(CCOC1)N(C)C2=O (centres unmarked) [Compound 48] was tested. Which IC50 did it give?
Answer: The IC50 was 194 nM.

Question: For CN1C(=O)c2c(O)c(=O)c(C(=O)NCc3ccc(F)c(Cl)c3F)cn2CC12CCOC2 (centres unmarked) [Compound 55], which IC50 is on record?
Answer: The IC50 was 30 nM.

Question: How did the IC50 turn out when CN1C(=O)c2c(O)c(=O)c(C(=O)NCc3ccc(F)cc3F)cn2CC12COC2 [Compound 68] was run?
Answer: Its IC50 is 134 nM.

Question: For CCN1C(=O)c2c(O)c(=O)c(C(=O)NCc3ccc(F)cc3F)cn2CC12COC2 [Compound 69], which IC50 is on record?
Answer: Its IC50 is 452 nM.

Question: With COCCN1C(=O)c2c(O)c(=O)c(C(=O)NCc3ccc(F)cc3F)cn2CC12COC2 [Compound 70] as the compound, how does the IC50 read?
Answer: The IC50 was 91 nM.

Question: How did the IC50 turn out when CN1C(=O)c2c(O)c(=O)c(C(=O)NCc3ccc(F)cc3F)cn2N(C)C12CCOC2 (centres unmarked) [Compound 103] was run?
Answer: The IC50 was 114 nM.

Question: With CCOCCN1C(=O)c2c(O)c(=O)c(C(=O)NCc3ccc(F)cc3F)cn2N(C)C12CCOCC2 [Compound 142] as the compound, how does the IC50 read?
Answer: Its IC50 is 171 nM.

Question: For CN1C(=O)c2c(O)c(=O)c(C(=O)NCc3ccc(F)cc3F)cn2N(C)C12COC2 [Compound 143], which IC50 is on record?
Answer: The IC50 was 78 nM.

Question: Which IC50 does the source give for CCN1C(=O)c2c(O)c(=O)c(C(=O)NCc3ccc(F)cc3F)cn2N(C)C12COC2 [Compound 144] here?
Answer: Its IC50 is 591 nM.

same assay, conditions: Human immunodeficiency virus 1, NL43, MT4-GFP cells infected with HIV-1; serum free conditions (0% NHS); inhibition of reproductive ratio R0, 48-72 h post-infection; read-out: ViKinG IP (nM) with 0% NHS

Question: For CN1C(=O)c2c(O)c(=O)c(-c3nnc(Cc4ccc(F)cc4F)s3)cn2N(C)C12CCCNCC2 (centres unmarked) [Compound 34], which IC50 is on record?
Answer: The IC50 was 9.7 nM.

Question: With CCN1C(=O)c2c(O)c(=O)c(-c3nnc(Cc4ccc(F)cc4F)s3)cn2N(C)C12CCCOC2 (centres unmarked) [Compound 37] as the compound, how does the IC50 read?
Answer: Its IC50 is 5.3 nM.

Question: For CN1C(=O)c2c(O)c(=O)c(-c3nnc(Cc4ccc(F)cc4)s3)cn2N(C)C12CCOC2 (centres unmarked) [Compound 38], which IC50 is on record?
Answer: The IC50 was 3.8 nM.

Question: Which IC50 does the source give for CN1C(=O)c2c(O)c(=O)c(C(=O)NCc3ccc(F)cc3F)cn2CC12CCOCC2 [Compound 39] here?
Answer: Its IC50 is 4.2 nM.

Question: For CCN1C(=O)c2c(O)c(=O)c(C(=O)NCc3ccc(F)cc3F)cn2CC12CCOCC2 [Compound 40], which IC50 is on record?
Answer: The IC50 was 2.8 nM.

Question: Which IC50 does the source give for CCCN1C(=O)c2c(O)c(=O)c(C(=O)NCc3ccc(F)cc3F)cn2CC12CCOCC2 [Compound 41] here?
Answer: Its IC50 is 11.2 nM.

Question: COCCN1C(=O)c2c(O)c(=O)c(C(=O)NCc3ccc(F)cc3F)cn2CC12CCOCC2 [Compound 42] was tested. Which IC50 did it give?
Answer: Its IC50 is 2.4 nM.

Question: With COCCCN1C(=O)c2c(O)c(=O)c(C(=O)NCc3ccc(F)cc3F)cn2CC12CCOCC2 [Compound 43] as the compound, how does the IC50 read?
Answer: The IC50 was 3 nM.

Question: With CCOCCN1C(=O)c2c(O)c(=O)c(C(=O)NCc3ccc(F)cc3F)cn2CC12CCOCC2 [Compound 44] as the compound, how does the IC50 read?
Answer: Its IC50 is 5.8 nM.

Question: For CCCCCN1C(=O)c2c(O)c(=O)c(C(=O)NCc3ccc(F)cc3F)cn2CC12CCOCC2 [Compound 45], which IC50 is on record?
Answer: The IC50 was 6.4 nM.

Question: With O=C(NCc1ccc(F)cc1F)c1cn2c(c(O)c1=O)C(=O)N(CCCC(F)(F)F)C1(CCOCC1)C2 [Compound 46] as the compound, how does the IC50 read?
Answer: The IC50 was 3.2 nM.

Question: Which IC50 does the source give for O=C(NCc1ccc(F)cc1F)c1cn2c(c(O)c1=O)C(=O)N(CCCCC(F)(F)F)C1(CCOCC1)C2 [Compound 47] here?
Answer: Its IC50 is 6.6 nM.

Question: With COCc1c(C(=O)NCc2ccc(F)cc2F)c(=O)c(O)c2n1CC1(CCOC1)N(C)C2=O (centres unmarked) [Compound 48] as the compound, how does the IC50 read?
Answer: Its IC50 is 124 nM.

Question: Which IC50 does the source give for CN1C(=O)c2c(O)c(=O)c(C(=O)NCc3ccc(F)c(Cl)c3F)cn2CC12CCOC2 (centres unmarked) [Compound 55] here?
Answer: Its IC50 is 0.6 nM.

Question: Which IC50 does the source give for CN1C(=O)c2c(O)c(=O)c(C(=O)NCc3ccc(F)cc3F)cn2CC12COC2 [Compound 68] here?
Answer: The IC50 was 7.6 nM.

Question: How did the IC50 turn out when CCN1C(=O)c2c(O)c(=O)c(C(=O)NCc3ccc(F)cc3F)cn2CC12COC2 [Compound 69] was run?
Answer: The IC50 was 3.5 nM.

Question: For COCCN1C(=O)c2c(O)c(=O)c(C(=O)NCc3ccc(F)cc3F)cn2CC12COC2 [Compound 70], which IC50 is on record?
Answer: Its IC50 is 2.5 nM.

Question: For CN1C(=O)c2c(O)c(=O)c(-c3nnc(Cc4ccc(F)cc4F)s3)cn2CC12CCNCC2 [Compound 93], which IC50 is on record?
Answer: The IC50 was 73.9 nM.

Question: How did the IC50 turn out when CCOCCN1C(=O)c2c(O)c(=O)c(C(=O)NCc3ccc(F)cc3F)cn2N(C)C12CCOCC2 [Compound 142] was run?
Answer: The IC50 was 1.3 nM.

Question: With CN1C(=O)c2c(O)c(=O)c(C(=O)NCc3ccc(F)cc3F)cn2N(C)C12COC2 [Compound 143] as the compound, how does the IC50 read?
Answer: The IC50 was 1.4 nM.

Question: Which IC50 does the source give for CCN1C(=O)c2c(O)c(=O)c(C(=O)NCc3ccc(F)cc3F)cn2N(C)C12COC2 [Compound 144] here?
Answer: The IC50 was 1.5 nM.

same assay, conditions: MT4-GFP cells infected with HIV-1; serum free conditions (0% NHS); inhibition of reproductive ratio R0, 48-72 h post-infection; read-out: ViKinG IP (nM) with 0% NHS

Question: For CN1C(=O)c2c(O)c(=O)c(C(=O)NCc3ccc(F)cc3F)cn2N(C)C12CCOC2 (centres unmarked) [Compound 103], which IC50 is on record?
Answer: Its IC50 is 1.7 nM.
